Source: the NIST ThermoML archive (doi:10.1021/je200595b)
± gives the expanded uncertainty stated by the source.

Experiment: excess molar enthalpy (molar enthalpy of mixing); xn = mol fraction of the nth substance listed
Settings: 298.15 K, 100 kPa, Liquid, Flow calorimetry

CC(=O)OC(C)=O [ethanoic anhydride] + CCO
excess molar enthalpy (x2 = 0.05): 0.0822 ± 0.00406 kcal/mol | excess molar enthalpy (x2 = 0.1): 0.154 ± 0.00789 kcal/mol | excess molar enthalpy (x2 = 0.15): 0.214 ± 0.0108 kcal/mol | excess molar enthalpy (x2 = 0.2): 0.266 ± 0.0134 kcal/mol | excess molar enthalpy (x2 = 0.25): 0.306 ± 0.0155 kcal/mol | excess molar enthalpy (x2 = 0.3): 0.339 ± 0.0172 kcal/mol | excess molar enthalpy (x2 = 0.35): 0.364 ± 0.0184 kcal/mol | excess molar enthalpy (x2 = 0.4): 0.382 ± 0.0194 kcal/mol | excess molar enthalpy (x2 = 0.45): 0.396 ± 0.0201 kcal/mol | excess molar enthalpy (x2 = 0.5): 0.405 ± 0.0206 kcal/mol | excess molar enthalpy (x2 = 0.6): 0.383 ± 0.0194 kcal/mol | excess molar enthalpy (x2 = 0.65): 0.363 ± 0.0184 kcal/mol | excess molar enthalpy (x2 = 0.7): 0.337 ± 0.017 kcal/mol | excess molar enthalpy (x2 = 0.75): 0.306 ± 0.0155 kcal/mol | excess molar enthalpy (x2 = 0.8): 0.268 ± 0.0136 kcal/mol | excess molar enthalpy (x2 = 0.85): 0.221 ± 0.0112 kcal/mol | excess molar enthalpy (x2 = 0.9): 0.164 ± 0.00837 kcal/mol | excess molar enthalpy (x2 = 0.95): 0.0939 ± 0.00478 kcal/mol

CC(=O)OC(C)=O [ethanoic anhydride] + CC(=O)O
excess molar enthalpy (x1 = 0.05): 0.0108 ± 0.000717 kcal/mol | excess molar enthalpy (x1 = 0.1): 0.0213 ± 0.0012 kcal/mol | excess molar enthalpy (x1 = 0.15): 0.032 ± 0.00167 kcal/mol | excess molar enthalpy (x1 = 0.2): 0.0423 ± 0.00215 kcal/mol | excess molar enthalpy (x1 = 0.25): 0.0519 ± 0.00263 kcal/mol | excess molar enthalpy (x1 = 0.3): 0.0607 ± 0.00311 kcal/mol | excess molar enthalpy (x1 = 0.35): 0.0688 ± 0.00359 kcal/mol | excess molar enthalpy (x1 = 0.4): 0.0758 ± 0.00382 kcal/mol | excess molar enthalpy (x1 = 0.45): 0.0813 ± 0.00406 kcal/mol | excess molar enthalpy (x1 = 0.5): 0.0851 ± 0.0043 kcal/mol | excess molar enthalpy (x1 = 0.55): 0.0875 ± 0.00454 kcal/mol | excess molar enthalpy (x1 = 0.6): 0.088 ± 0.00454 kcal/mol | excess molar enthalpy (x1 = 0.65): 0.0863 ± 0.0043 kcal/mol | excess molar enthalpy (x1 = 0.7): 0.0822 ± 0.00406 kcal/mol | excess molar enthalpy (x1 = 0.75): 0.0758 ± 0.00382 kcal/mol | excess molar enthalpy (x1 = 0.8): 0.0669 ± 0.00335 kcal/mol | excess molar enthalpy (x1 = 0.85): 0.055 ± 0.00287 kcal/mol | excess molar enthalpy (x1 = 0.9): 0.0402 ± 0.00215 kcal/mol | excess molar enthalpy (x1 = 0.95): 0.022 ± 0.0012 kcal/mol

CCOC(C)=O [ethyl acetate] + CCO
excess molar enthalpy (x2 = 0.05): 0.0712 ± 0.00359 kcal/mol | excess molar enthalpy (x2 = 0.1): 0.135 ± 0.00693 kcal/mol | excess molar enthalpy (x2 = 0.15): 0.185 ± 0.00932 kcal/mol | excess molar enthalpy (x2 = 0.2): 0.222 ± 0.0112 kcal/mol | excess molar enthalpy (x2 = 0.25): 0.25 ± 0.0127 kcal/mol | excess molar enthalpy (x2 = 0.3): 0.27 ± 0.0136 kcal/mol | excess molar enthalpy (x2 = 0.35): 0.283 ± 0.0143 kcal/mol | excess molar enthalpy (x2 = 0.4): 0.291 ± 0.0148 kcal/mol | excess molar enthalpy (x2 = 0.45): 0.293 ± 0.0148 kcal/mol | excess molar enthalpy (x2 = 0.5): 0.289 ± 0.0146 kcal/mol | excess molar enthalpy (x2 = 0.55): 0.284 ± 0.0143 kcal/mol | excess molar enthalpy (x2 = 0.6): 0.276 ± 0.0139 kcal/mol | excess molar enthalpy (x2 = 0.65): 0.262 ± 0.0131 kcal/mol | excess molar enthalpy (x2 = 0.7): 0.234 ± 0.0117 kcal/mol | excess molar enthalpy (x2 = 0.75): 0.205 ± 0.0103 kcal/mol | excess molar enthalpy (x2 = 0.8): 0.174 ± 0.00884 kcal/mol | excess molar enthalpy (x2 = 0.85): 0.138 ± 0.00693 kcal/mol | excess molar enthalpy (x2 = 0.9): 0.1 ± 0.00502 kcal/mol | excess molar enthalpy (x2 = 0.95): 0.0554 ± 0.00287 kcal/mol
